Source: patent US20260297070A1, “CYCLIC [COMPOUND LEFT OUT] WRN INHIBITORS” (Nimbus Wadjet, Inc., priority 2023, published 2026)

Target: T1, human Werner helicase (WRN-BV08, Uniprot Q14191, amino acids 517-1235 with L1074F point mutation) (Homo sapiens, UniProt Q14191, L1074F)
T1 construct: Uniprot Q14191, amino acids 517-1235 with L1074F point mutation; TEV-cleavable 8×His (C, cleaved yes); made in house; host or cells: Sf9 insect cells (baculovirus)
Assay: WRN (BV08) ADP-Glo Assay
Format: biochemical
Settings: 0.15 nM WRN, 5 μM ATP, 0.1 nM DNA duplex, 15 min preincubation, 60 min at 25° C., pH 7.5, 1% DMSO; read-out: ADP-Glo_hWRN_IC50
Method in brief: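 ADP-Glo luminescence read-out of ATP hydrolysis. Conditions: 0.15 nM WRN, 5 μM ATP, 0.1 nM DNA duplex, 1% DMSO, 60 min at 25 °C after 15 min compound preincubation. Max/min controls were DMSO and 20 μM NSC-617145; IC50 from four-parameter fit.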

T1 sequence (Q14191 with tags, fused parts or gaps L1074F limits assumed): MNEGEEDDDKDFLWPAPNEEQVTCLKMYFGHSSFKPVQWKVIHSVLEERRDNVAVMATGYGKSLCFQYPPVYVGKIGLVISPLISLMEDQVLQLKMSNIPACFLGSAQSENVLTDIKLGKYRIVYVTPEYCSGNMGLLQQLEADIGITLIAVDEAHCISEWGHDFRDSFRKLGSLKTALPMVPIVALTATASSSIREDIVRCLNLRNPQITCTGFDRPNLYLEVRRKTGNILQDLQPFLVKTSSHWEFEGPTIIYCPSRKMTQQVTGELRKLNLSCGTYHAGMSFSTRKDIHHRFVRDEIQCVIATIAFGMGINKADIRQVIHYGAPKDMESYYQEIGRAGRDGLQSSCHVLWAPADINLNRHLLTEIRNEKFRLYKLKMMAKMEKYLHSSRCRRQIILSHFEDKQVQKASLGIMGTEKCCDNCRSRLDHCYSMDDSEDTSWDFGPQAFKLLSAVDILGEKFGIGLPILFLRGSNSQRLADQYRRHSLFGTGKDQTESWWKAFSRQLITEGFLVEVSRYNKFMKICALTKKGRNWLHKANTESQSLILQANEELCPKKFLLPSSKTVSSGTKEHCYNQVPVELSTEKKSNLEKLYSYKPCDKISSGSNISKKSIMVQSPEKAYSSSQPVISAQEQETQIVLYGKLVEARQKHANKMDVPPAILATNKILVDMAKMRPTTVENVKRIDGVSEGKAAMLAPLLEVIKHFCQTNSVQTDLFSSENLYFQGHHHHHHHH

Row | SMILES | IC50 [µM]
1 | CN(C)C(=O)C(C(=O)N(Cc1ccnc(C(C)(C)O)c1)C1C=CS(=O)(=O)C1)n1cc(-c2ccccc2)cn1 (stereo not drawn) [I-594, N′-(1,1-dioxo-2,3-dihydro-1lambda6-thiophen-3-yl)-N′-{[2-(2-hydroxypropan-2-yl)pyridin-4-yl]methyl}-N,N-dimethyl-2-(4-phenyl-1H-pyrazol-1-yl)propanediamide] | 0.5 to 5
2 | COC(C(=O)N(Cc1nc(C2CC2)cs1)C1C=CS(=O)(=O)C1)c1ccc(-c2ccc(F)c(F)c2)cc1F (stereo not drawn) [I-47, N-[(4-cyclopropyl-1,3-thiazol-2-yl)methyl]-N-(1,1-dioxo-2,3-dihydro-1lambda6-thiophen-3-yl)-2-methoxy-2-{3,3′,4′-trifluoro-[1,1′-biphenyl]-4-yl}acetamide] | < 0.5
3 | CC(C)(O)c1cc(CN(C(=O)Cn2ncc3cc(S(F)(F)(F)(F)F)ccc32)C2C=CS(=O)(=O)C2)ccn1 (single isomer, unassigned) [I-727] | 0.5 to 5
4 | O=C(Cc1ccc(-n2cccc2)cc1)N(Cc1ccnc2ccccc12)C1C=CS(=O)(=O)C1 (stereo not drawn) [I-170, N-(1,1-dioxo-2,3-dihydro-1lambda6-thiophen-3-yl)-2-[4-(1H-pyrrol-1-yl)phenyl]-N-[(quinolin-4-yl)methyl]acetamide] | 0.5 to 5
5 | O=C(Cc1ccc(-n2cccc2)cc1)N(Cc1ccccc1N1CCC(O)C1)C1C=CS(=O)(=O)C1 (stereo not drawn) [I-372, N-(1,1-dioxo-2,3-dihydro-1lambda6-thiophen-3-yl)-N-{[2-(3-hydroxypyrrolidin-1-yl)phenyl]methyl}-2-[4-(1H-pyrrol-1-yl)phenyl]acetamide] | > 50
6 | Cc1cnccc1CN(C(=O)Cc1ccc(-n2cccc2)cc1)C1C=CS(=O)(=O)C1 (stereo not drawn) [I-313, N-(1,1-dioxo-2,3-dihydro-1lambda6-thiophen-3-yl)-N-[(3-methylpyridin-4-yl)methyl]-2-[4-(1H-pyrrol-1-yl)phenyl]acetamide] | 10 to 50
7 | O=C(CC1CC(c2ccccc2)C1)N(Cc1ccncc1)C1C=CS(=O)(=O)C1 (stereo not drawn) [I-584, N-(1,1-dioxo-2,3-dihydro-1lambda6-thiophen-3-yl)-2-(3-phenylcyclobutyl)-N-[(pyridin-4-yl)methyl]acetamide] | > 50
8 | O=C(Cn1cc(-c2ccc(F)c(F)c2)cn1)N(Cc1ccnc(N2CCNCC2)c1)C1C=CS(=O)(=O)C1 (stereo not drawn) [I-787, 2-[4-(3,4-difluorophenyl)-1H-pyrazol-1-yl]-N-(1,1-dioxo-2,3-dihydro-1lambda6-thiophen-3-yl)-N-{[2-(piperazin-1-yl)pyridin-4-yl]methyl}acetamide] | 0.5 to 5
9 | O=C(Nc1ccc(CC(=O)N(Cc2ccncc2)C2C=CS(=O)(=O)C2)cc1)C1CC1 (stereo not drawn) [I-448, N-(4-{[(1,1-dioxo-2,3-dihydro-1lambda6-thiophen-3-yl)[(pyridin-4-yl)methyl]carbamoyl]methyl}phenyl)cyclopropanecarboxamide] | > 50
10 | CN(C)C(=O)C(C(=O)N(Cc1nc(C2CC2)cs1)C1C=CS(=O)(=O)C1)c1ccc(-c2ccc(F)c(F)c2)cc1F (stereo not drawn) [I-25, N′-[(4-cyclopropyl-1,3-thiazol-2-yl)methyl]-N′-(1,1-dioxo-2,3-dihydro-1lambda6-thiophen-3-yl)-N,N-dimethyl-2-{3,3′,4′-trifluoro-[1,1′-biphenyl]-4-yl}propanediamide] | < 0.5
11 | CS(=O)(=O)c1ccc(CC(=O)N(Cc2ccncc2)C2C=CS(=O)(=O)C2)cc1 (stereo not drawn) [I-527, N-(1,1-dioxo-2,3-dihydro-1lambda6-thiophen-3-yl)-2-(4-methanesulfonylphenyl)-N-[(pyridin-4-yl)methyl]acetamide] | > 50
12 | O=C(Cc1ccc(N2CC(F)(F)C2)cc1)N(Cc1ccncc1)C1C=CS(=O)(=O)C1 (stereo not drawn) [I-482, 2-[4-(3,3-difluoroazetidin-1-yl)phenyl]-N-(1,1-dioxo-2,3-dihydro-1lambda6-thiophen-3-yl)-N-[(pyridin-4-yl)methyl]acetamide] | > 50
13 | COc1cc(C(C)N(C(=O)Cn2cc(-c3cc(F)c(F)c(F)c3)cn2)C2C=CS(=O)(=O)C2)ccn1 (stereo not drawn) [I-820, N-(1,1-dioxo-2,3-dihydro-1lambda6-thiophen-3-yl)-N-[1-(2-methoxypyridin-4-yl)ethyl]-2-[4-(3,4,5-trifluorophenyl)-1H-pyrazol-1-yl]acetamide] | < 0.5
14 | COC(C(=O)N(Cc1nc(C2CC2)cs1)C1C=CS(=O)(=O)C1)c1ccc(S(F)(F)(F)(F)F)cc1 (stereo not drawn) [I-74, N-[(4-cyclopropyl-1,3-thiazol-2-yl)methyl]-N-(1,1-dioxo-2,3-dihydro-1lambda6-thiophen-3-yl)-2-methoxy-2-[4-(pentafluoro-lambda6-sulfanyl)phenyl]acetamide] | < 0.5

Second part, the compound after the results:

Row | IC50 [µM] | SMILES
15 | < 0.5 | CNC(=O)C(C(=O)N(Cc1ccnc(OC)c1)[C@@H]1C=CS(=O)(=O)C1)c1ccc(-c2ccc(F)c(F)c2)cc1F (single isomer, unassigned) [I-694, (2R*)-N′-[(3R)-1,1-dioxo-2,3-dihydro-1lambda6-thiophen-3-yl]-N′-[(2-methoxypyridin-4-yl)methyl]-N-methyl-2-{3,3′,4′-trifluoro-[1,1′-biphenyl]-4-yl}propanediamide]
16 | 0.5 to 5 | O=C(C(C(=O)N(Cc1ccncc1)C1C=CS(=O)(=O)C1)c1ccc(-c2ccc(F)cc2)cc1)N1CCCC1 (stereo not drawn) [I-125, N-(1,1-dioxo-2,3-dihydro-1lambda6-thiophen-3-yl)-2-{4′-fluoro-[1,1′-biphenyl]-4-yl}-3-oxo-N-[(pyridin-4-yl)methyl]-3-(pyrrolidin-1-yl)propanamide]
17 | < 0.5 | CN(C)C(=O)C(C(=O)N(Cc1ccnc(C(C)(C)O)c1)C1C=CS(=O)(=O)C1)c1ccc(-c2ccc(F)cc2)cc1F (stereo not drawn) [I-21, 2-{3,4′-difluoro-[1,1′-biphenyl]-4-yl}-N-(1,1-dioxo-2,3-dihydro-1lambda6-thiophen-3-yl)-N-{[2-(2-hydroxypropan-2-yl)pyridin-4-yl]methyl}-N′,N′-dimethylpropanediamide]
18 | 10 to 50 | COc1cc(CN(C(=O)C(OC2CS(=O)(=O)C2)c2ccc(-c3ccc(F)c(F)c3)cc2F)[C@@H]2C=CS(=O)(=O)C2)ccn1 (stereo partly drawn) [I-833, 2-[(1,1-dioxo-1lambda6-thietan-3-yl)oxy]-N-[(3R)-1,1-dioxo-2,3-dihydro-1lambda6-thiophen-3-yl]-N-[(2-methoxypyridin-4-yl)methyl]-2-{3,3′,4′-trifluoro-[1,1′-biphenyl]-4-yl}acetamide]
19 | 0.5 to 5 | COc1cc(CN(C(=O)Cc2ccc(-c3cccc(F)c3)cc2F)C2C=CS(=O)(=O)C2)ccn1 (stereo not drawn) [I-91, 2-{3,3′-difluoro-[1,1′-biphenyl]-4-yl}-N-(1,1-dioxo-2,3-dihydro-1lambda6-thiophen-3-yl)-N-[(2-methoxypyridin-4-yl)methyl]acetamide]
20 | 0.5 to 5 | O=C(Cc1ccc(-c2cccc(F)c2)cc1)N(Cc1ccncc1)C1C=CS(=O)(=O)C1 (stereo not drawn) [I-188, N-(1,1-dioxo-2,3-dihydro-1lambda6-thiophen-3-yl)-2-{3′-fluoro-[1,1′-biphenyl]-4-yl}-N-[(pyridin-4-yl)methyl]acetamide]
21 | 0.5 to 5 | CCOC(C(=O)N(Cc1ccnc(OC)c1)C1C=CS(=O)(=O)C1)c1ccc(-c2ccc(F)cc2)cc1 (stereo not drawn) [I-113, N-(1,1-dioxo-2,3-dihydro-1lambda6-thiophen-3-yl)-2-ethoxy-2-{4′-fluoro-[1,1′-biphenyl]-4-yl}-N-[(2-methoxypyridin-4-yl)methyl]acetamide]
